Assay [1] has as its target T1, Serine protease 1 (Bos taurus, UniProt P00760).
T1 sequence (P00760 whole entry): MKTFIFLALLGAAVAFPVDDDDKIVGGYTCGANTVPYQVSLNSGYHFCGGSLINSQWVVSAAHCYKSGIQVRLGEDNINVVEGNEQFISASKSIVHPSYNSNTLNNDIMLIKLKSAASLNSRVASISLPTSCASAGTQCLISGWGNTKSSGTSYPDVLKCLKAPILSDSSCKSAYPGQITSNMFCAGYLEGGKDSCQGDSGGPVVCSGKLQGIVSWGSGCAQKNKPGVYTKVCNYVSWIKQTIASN
The assay can be described thus: Binding affinity towards trypsin.

Assay [2] has as its target Prothrombin (Bos taurus, UniProt P00735). The assay can be described thus: Binding affinity towards thrombin.
Assay [3] addresses Coagulation factor X (Homo sapiens, UniProt P00742). The assay can be described thus: Binding affinity towards Coagulation factor Xa.

Coagulation factor X, sequence (P00742 41-179 limits assumed): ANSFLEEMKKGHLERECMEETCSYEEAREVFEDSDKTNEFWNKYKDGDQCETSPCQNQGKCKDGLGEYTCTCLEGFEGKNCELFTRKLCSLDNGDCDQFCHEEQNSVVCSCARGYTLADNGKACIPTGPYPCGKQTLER
Coagulation factor X, sequence (P00742 235-488 limits assumed): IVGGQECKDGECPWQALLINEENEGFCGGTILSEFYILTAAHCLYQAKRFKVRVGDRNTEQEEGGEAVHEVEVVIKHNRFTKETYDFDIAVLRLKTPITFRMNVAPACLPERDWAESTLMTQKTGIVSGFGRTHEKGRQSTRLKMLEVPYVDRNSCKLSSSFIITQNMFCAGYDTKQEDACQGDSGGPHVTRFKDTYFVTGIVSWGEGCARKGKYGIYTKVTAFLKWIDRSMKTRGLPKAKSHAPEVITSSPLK

On to `N=C(N)c1cccc(C[C@H](NS(=O)(=O)c2ccc3ccccc3c2)C(=O)N2CCNCC2)c1`, for which the Ki in assay [1] is 220 nM; in assay [2], 500 nM; in assay [3], 21 µM.
In the same order, the values of `N=C(N)c1cccc(C[C@H](NS(=O)(=O)c2ccc3ccccc3c2)C(=O)N2Cc3ccccc3C[C@@H]2C(=O)O)c1` are 130 nM, 18 nM and 41.5 µM.
In the same order, the values of `N=C(N)c1cccc(C[C@H](NS(=O)(=O)c2ccc3ccccc3c2)C(=O)N2Cc3ccccc3C=C2C(=O)O)c1` are 4500 nM, 120 nM and 54 µM.
On the same counts, the results for `Cc1c(C)c(S(=O)(=O)N[C@@H](Cc2cccc(C(=N)N)c2)C(=O)N2CCN(S(C)(=O)=O)CC2)c(C)c2c1OC(C)(C)CC2` are 760 nM, 7.41 nM and 74.1 µM.
Regarding `CNC(=O)[C@H]1CCCN(C(=O)[C@H](Cc2cccc(C(=N)N)c2)NS(=O)(=O)c2ccc3ccccc3c2)C1`, the Ki in assay [1] is 310 nM; in assay [2], 260 nM; in assay [3], 33.1 µM.
On the same counts, the results for `Cc1ccc(S(=O)(=O)N[C@@H](Cc2cccc(C(=N)N)c2)C(=O)N2CCC(C)CC2)cc1` are 520 nM, 26 nM and 71 µM.
On the same counts, the results for `N=C(N)c1cccc(C[C@H](NS(=O)(=O)c2ccc3ccccc3c2)C(=O)N2CC[C@@H]3CCCC[C@H]32)c1` are 1200 nM, 320 nM and 13 µM.
In the same order, the values of `COC(=O)[C@H](Cc1cccc(C(=N)N)c1)NS(=O)(=O)c1ccc2ccccc2c1` are 2510 nM, 280 nM and 2.51 µM.
As to `CNC(=O)C1CCN(C(=O)[C@H](Cc2cccc(C(=N)N)c2)NS(=O)(=O)c2ccc3ccccc3c2)CC1`, the Ki is 160 nM in assay [1], 160 nM in assay [2] and 76 µM in assay [3].
For the compound `CNC(=O)[C@H](Cc1cccc(C(=N)N)c1)NS(=O)(=O)c1ccc(C)cc1`, the results for the Ki in assay [1], in assay [2] and in assay [3] were 46000 nM, 18000 nM and 40 µM, respectively.
Turning to `COC(=O)N1CCN(C(=O)[C@H](Cc2cccc(C(=N)N)c2)NS(=O)(=O)c2ccc3ccccc3c2)CC1`, the Ki in assay [1] is 20 nM; in assay [2] it was 19 nM; in assay [3], 77.6 µM.
As for `CNC(=O)[C@H](Cc1cccc(C(=N)N)c1)NS(=O)(=O)c1c(C(C)C)cc(C(C)C)cc1C(C)C`, the values for the inhibition constant Ki in assay [1], in assay [2] and in assay [3] were 26000 nM, 3800 nM and 11 µM, respectively.
In the same order, the values of `N=C(N)c1cccc(C[C@H](NS(=O)(=O)c2ccc3ccccc3c2)C(=O)N2CCC[C@H](C(=O)OCc3ccccc3)C2)c1` are 160 nM, 300 nM and 8.59 µM.
On the same counts, the results for `COC(=O)[C@@H]1CCCN1C(=O)[C@H](Cc1cccc(C(=N)N)c1)NS(=O)(=O)c1ccc2ccccc2c1` are 8090 nM, 661 nM and 110 µM.
On the same counts, the results for `N=C(N)c1cccc(C[C@H](NS(=O)(=O)c2ccc3ccccc3c2)C(=O)OCc2ccccc2)c1` are 520 nM, 42 nM and 2.2 µM.
Take `N=C(N)c1cccc(C[C@H](NS(=O)(=O)c2ccc3ccccc3c2)C(=O)N2CCC(C(=O)OC3CCCCC3)CC2)c1`: the figures for the Ki in assay [1], in assay [2] and in assay [3] were 80 nM, 2100 nM and 7.6 µM, respectively.
On to `N=C(N)c1cccc(C[C@H](NS(=O)(=O)c2ccc3ccccc3c2)C(=O)N2CCCCCCC2)c1`, for which the Ki was 610 nM in assay [1], 30 nM in assay [2] and 22 µM in assay [3].
In the same order, the values of `N=C(N)c1cccc(C[C@H](NS(=O)(=O)c2ccc3ccccc3c2)C(=O)N2CCCC2)c1` are 437 nM, 52 nM and 50 µM.
On the same counts, the results for `CC(C)c1cc(C(C)C)c(S(=O)(=O)N[C@@H](Cc2cccc(C(=N)N)c2)C(=O)N2CCC[C@H](C(=O)NCc3ccccc3)C2)c(C(C)C)c1` are 460 nM, 1800 nM and 2.51 µM.
`COC(=O)C1CCN(C(=O)[C@H](Cc2cccc(C(=N)N)c2)NS(=O)(=O)c2c(C)cc(C)cc2C)CC1`: the Ki in assay [1] is 991 nM; in assay [2], 180 nM; in assay [3], 83.2 µM.
On the same counts, the results for `CN(C)c1cccc2c(S(=O)(=O)N[C@@H](Cc3cccc(C(=N)N)c3)C(=O)N3CCN(S(C)(=O)=O)CC3)cccc12` are 170 nM, 4.17 nM and 3.89 µM.
`CN(C)C(=O)N1CCN(C(=O)[C@H](Cc2cccc(C(=N)N)c2)NS(=O)(=O)c2ccc3ccccc3c2)CC1`: the Ki in assay [1] is 170 nM; in assay [2] it was 8.71 nM; in assay [3], 24 µM.
For the compound `CN1CCN(C(=O)[C@H](Cc2cccc(C(=N)N)c2)NS(=O)(=O)c2ccc3ccccc3c2)CC1`, the inhibition constant Ki in assay [1] was 1300 nM; in assay [2], 36 nM; in assay [3], 30 µM.
On the same counts, the results for `COC(=O)C1CCN(C(=O)[C@H](Cc2cccc(C(=N)N)c2)NS(=O)(=O)c2c(C(C)C)cc(C(C)C)cc2C(C)C)CC1` are 270 nM, 151 nM and 2.6 µM.
In the same order, the values of `CCCCOC(=O)[C@H](Cc1cccc(C(=N)N)c1)NS(=O)(=O)c1ccc2ccccc2c1` are 260 nM, 13 nM and 3.1 µM.
On the same counts, the results for `CNC(=O)[C@H]1CCCN(C(=O)[C@H](Cc2cccc(C(=N)N)c2)NS(=O)(=O)c2c(C(C)C)cc(C(C)C)cc2C(C)C)C1` are 794 nM, 230 nM and 1.51 µM.
Take `COC(=O)C1CCN(C(=O)[C@H](Cc2cccc(C(=N)N)c2)NS(=O)(=O)c2ccc3ccccc3c2)CC1`: the Ki in assay [1] is 36 nM; in assay [2], 17 nM; in assay [3], 42.7 µM.
On the same counts, the results for `N=C(N)c1cccc(C[C@H](NS(=O)(=O)c2cccc3ccccc23)C(=O)N2CCCCC2)c1` are 610 nM, 230 nM and 17 µM.
Turning to `N=C(N)c1cccc(C[C@H](NS(=O)(=O)c2ccc3ccccc3c2)C(=O)N2CCN(C(=O)CO)CC2)c1`, the Ki in assay [1] was 1100 nM; in assay [2], 57.9 nM; in assay [3], 35 µM.
On the same counts, the results for `CC(C)OC(=O)[C@H](Cc1cccc(C(=N)N)c1)NS(=O)(=O)c1ccc2ccccc2c1` are 1410 nM, 110 nM and 3.5 µM.
On the same counts, the results for `N=C(N)c1cccc(C[C@H](NS(=O)(=O)c2ccc3ccccc3c2)C(=O)N2CCC[C@H]2C(=O)OCc2ccccc2)c1` are 1000 nM, 631 nM and 20 µM.
On the same counts, the results for `COC(=O)[C@H]1[C@@H](C)CCCN1C(=O)[C@H](Cc1cccc(C(=N)N)c1)NS(=O)(=O)c1ccc2ccccc2c1` are 1800 nM, 520 nM and 36 µM.
Regarding `Cc1ccc(S(=O)(=O)N[C@@H](Cc2cccc(C(=N)N)c2)C(=O)N2CCOCC2)cc1`, the Ki in assay [1] is 710 nM; in assay [2], 170 nM; in assay [3], 52 µM.
Take `N=C(N)c1cccc(C[C@H](NS(=O)(=O)c2ccc3ccccc3c2)C(=O)N2CCN(c3ccccc3)CC2)c1`: the figures for the Ki in assay [1], in assay [2] and in assay [3] were 27 nM, 520 nM and 27 µM, respectively.
On the same counts, the results for `CC1CCN(C(=O)[C@H](Cc2cccc(C(=N)N)c2)NS(=O)(=O)C[C@]23CC[C@H](CC2=O)C3(C)C)CC1` are 631 nM, 14.1 nM and 14.1 µM.
On the same counts, the results for `N=C(N)c1cccc(C[C@H](NS(=O)(=O)c2ccc3ccccc3c2)C(=O)N2CCC(C(=O)NCc3ccccc3)CC2)c1` are 270 nM, 3100 nM and 35 µM.
In the same order, the values of `N=C(N)c1cccc(C[C@H](NS(=O)(=O)c2ccc3ccccc3c2)C(=O)N2CCC(C(=O)OCc3ccccc3)CC2)c1` are 67 nM, 210 nM and 8.09 µM.
As for `CC1CCN(C(=O)[C@H](Cc2cccc(C(=N)N)c2)NS(=O)(=O)c2cccc3ccccc23)CC1`, the inhibitory constant (Ki) in assay [1] was 631 nM; in assay [2] it was 16 nM; in assay [3] it was 42 µM.
In the case of `N=C(N)c1cccc(C[C@H](NS(=O)(=O)c2ccc3ccccc3c2)C(=O)N2CCc3ccccc3C2)c1`, the inhibition constant Ki was 260 nM in assay [1], 37 nM in assay [2] and 18 µM in assay [3].
Turning to `Cc1cc(C)c(S(=O)(=O)N[C@@H](Cc2cccc(C(=N)N)c2)C(=O)N2CCC(C)CC2)c(C)c1`, the Ki was 4000 nM in assay [1], 59 nM in assay [2] and 95.5 µM in assay [3].
In the same order, the values of `COc1cc(C)c(S(=O)(=O)N[C@@H](Cc2cccc(C(=N)N)c2)C(=O)N2CCN(S(C)(=O)=O)CC2)c(C)c1C` are 1800 nM, 32 nM and 120 µM.
In the same order, the values of `COC(=O)[C@H]1CCCCN1C(=O)[C@H](Cc1cccc(C(=N)N)c1)NS(=O)(=O)c1ccc2ccccc2c1` are 1900 nM, 69.2 nM and 46 µM.
Turning to `CC1CCN(C(=O)[C@H](Cc2cccc(C(=N)N)c2)NS(=O)(=O)c2ccc3c(c2)C(=O)c2ccccc2C3=O)CC1`, the values for the Ki in assay [1], in assay [2] and in assay [3] were 74 nM, 26 nM and 2.3 µM, respectively.
Turning to `CNC(=O)[C@H](Cc1cccc(C(=N)N)c1)NS(=O)(=O)c1ccc2ccccc2c1`, the Ki in assay [1] was 25100 nM; in assay [2], 5700 nM; in assay [3], 26 µM.

For the origin of these results see ChEMBL document CHEMBL1132189, “Three-dimensional quantitative structure-activity relationship analyses using comparative molecular field analysis and comparative molecular similarity indices analysis to elucidate selectivity differences of inhibitors binding to trypsin, thrombin, and factor Xa” (J Med Chem, 1999).
